From the NIST ThermoML archive (doi:10.1016/j.tca.2017.04.014)

Test: molar heat capacity at constant pressure; xn = mol fraction of the nth substance listed
Settings: 101.3 kPa, Crystal, DSC

[O-2].[O-2].[Th+4] [thorium dioxide] + [O-2].[O-2].[U+4]
molar heat capacity at constant pressure [J/K/mol]
Settings | x1 = 0.3 | x1 = 0.5 | x1 = 0.6 | x1 = 0.7 | x1 = 0.8 | x1 = 0.9 | x1 = 1
300 K | 73.2 | 70.4 | 67.7 | 66.6 | 66.7 | 65.1 | 62.1
310 K | 73.7 | 71.8 | 69.3 | 67.6 | 67.3 | 66.4 | 61.8
320 K | 75.6 | 72.6 | 70.2 | 68.6 | 67.9 | 67.5 | 62.8
330 K | 75.9 | 73.8 | 71 | 69.3 | 69.1 | 68 | 63.5
340 K | 76.7 | 75.1 | 71.9 | 69.9 | 69.7 | 69 | 64.2
350 K | 78 | 76.1 | 72.6 | 70.4 | 70.8 | 70.1 | 65.1
360 K | 78.6 | 76.8 | 73.3 | 70.8 | 72.1 | 71.7 | 65.6
370 K | 78.9 | 77 | 74.5 | 71.4 | 72.3 | 71.7 | 65.9
380 K | 79.8 | 77.5 | 75.1 | 72 | 72.3 | 72 | 66.8
390 K | 80.2 | 79 | 75.8 | 72.9 | 74.1 | 73 | 67.3
400 K | 80.8 | 79.3 | 76.4 | 73.9 | 74.8 | 73.8 | 67.7
410 K | 81.3 | 79.6 | 76.8 | 73.8 | 74.8 | 74.4 | 68
420 K | 81.5 | 80.3 | 77.3 | 75.1 | 75.4 | 74.1 | 68.4
430 K | 82.1 | 81.2 | 77.5 | 75.5 | 75.9 | 74.4 | 68.6
440 K | 82.3 | 81.2 | 77.9 | 75.8 | 76.4 | 74.9 | 68.9
450 K | 83.3 | 82.1 | 78.6 | 75.7 | 76.9 | 76 | 69.6
460 K | 83.7 | 82.2 | 79.4 | 75.8 | 77.2 | 76.2 | 69.8
470 K | 83.9 | 82.8 | 79.5 | 76.2 | 77.5 | 76.7 | 70.1
480 K | 84 | 83.5 | 80.2 | 76.6 | 77.3 | 77 | 70.2
490 K | 84.5 | 83 | 80 | 77.9 | 78 | 77 | 70.5
500 K | 84.9 | 83.8 | 80.7 | 78.1 | 78.8 | 77 | 70.7
510 K | 85.5 | 84.1 | 80.7 | 77.9 | 78.6 | 78.3 | 70.9
520 K | 85.3 | 84.8 | 81 | 78.3 | 79 | 78.6 | 71.2
530 K | 85.5 | 84.5 | 81 | 78.4 | 79.6 | 78.6 | 71.4
540 K | 86.4 | 85 | 81.5 | 78.9 | 79.7 | 78.9 | 71.7
550 K | 86.6 | 85.1 | 82.9 | 79.6 | 80 | 78.9 | 71.9
560 K | 86.7 | 85.8 | 82.8 | 79.8 | 80.2 | 79.1 | 72
570 K | 86.7 | 86.2 | 82.8 | 80.3 | 80.1 | 79.7 | 72.1
580 K | 87.1 | 85.6 | 83.4 | 80.5 | 80.2 | 79.7 | 72.3
590 K | 87.4 | 86.7 | 83.4 | 80.6 | 80.5 | 79.7 | 72.5
600 K | 88 | 87 | 83.7 | 80.6 | 80.6 | 79.7 | 72.5
610 K | 87.5 | 86.6 | 84.4 | 80.6 | 80.6 | 79.7 | 72.5
620 K | 88 | 86.9 | 84.8 | 81.2 | 80.6 | 79.9 | 73
630 K | 88.5 | 87.5 | 84.2 | 81.4 | 81.1 | 80.2 | 73
640 K | 88.7 | 87.2 | 85.1 | 81.5 | 81.1 | 80.5 | 73.3
650 K | 88.9 | 87.3 | 85.1 | 82 | 80.9 | 80.7 | 73.6
660 K | 89 | 87.6 | 84.9 | 81.8 | 81.6 | 79.7 | 73.5
670 K | 88.9 | 88.3 | 85.8 | 82.3 | 81.9 | 79.7 | 73.6
680 K | 89.4 | 88.2 | 86.4 | 82.4 | 81.5 | 79.7 | 73.6
690 K | 90.2 | 88.2 | 86.4 | 82.4 | 81.6 | 79.9 | 73.4
700 K | 90.4 | 88.6 | 86.4 | 83.3 | 81.7 | 80.2 | 73.8
710 K | 91.2 | 89.5 | 86.4 | 83.3 | 82.2 | 80.5 | 74.5
720 K | 91.9 | 89.2 | 86.7 | 83.3 | 82.4 | 80.7 | 74.5
730 K | 92.2 | 90.1 | 87.3 | 83.3 | 82.7 | 81.2 | 74.6
739 K | – | – | – | – | – | – | 74.7
740 K | 92.9 | 90.4 | 87.7 | 83.3 | 82.7 | 81.4 | –
750 K | 93.1 | 91 | 87.8 | 83.6 | 82.7 | 81.3 | 74.6
760 K | 93.5 | 91 | 89.1 | 83.9 | 82.9 | 81.5 | 75
770 K | 94 | 91.7 | 89.1 | 84.3 | 82.8 | 81.5 | 75.3
780 K | 94.2 | 91.8 | 89.1 | 84.5 | 83.1 | 81 | 75.3
790 K | 94.3 | 92.3 | 89.1 | 84.9 | 83 | 81.8 | 75.3
800 K | 94.4 | 92.3 | 89.1 | 84.9 | 83.3 | 81.3 | 75.7
810 K | 95 | 92.7 | 89.8 | 85.3 | 83.1 | 82.3 | 75.7
820 K | 95.3 | 92 | 90.2 | 85.7 | 83.2 | 82.3 | 75.7
830 K | 95.6 | 92.8 | 89.5 | 86 | 83.3 | 82.3 | 75.9
840 K | 96 | 92.9 | 90.3 | 86 | 83.5 | 82.3 | 76
850 K | 96.1 | 93.2 | 90.7 | 86 | 83.6 | 82.3 | 76.1
860 K | 96.1 | 93.4 | 90.7 | 86 | 83.7 | 83.4 | 76.4
870 K | 96.3 | 93.8 | 90.8 | 86.4 | 84 | 83.9 | 76.1
